Measured values published in patent EP0154886A2, “Carboxyalkyl dipeptide derivatives, process for their preparation, agents containing them, and their use” (HOECHST AKTIENGESELLSCHAFT, priority 1984, dated 1985).

Columns and labels:
[1] = tested on: durch intravenöse Gabe von 310 ng Angiotensin hervorgerufene Pressorreaktion; assay: Inhibition of the angiotensin-induced pressor response in the anaesthetised rat after intraduodenal administration; type: in vivo, Ratte; conditions: narcotised rat
Protocol: Die erfindungsgemäßen Verbindungen der Formel I sind Hemmer des Angiotensin-Converting-Enzyme (ACE), das die Umwandlung von Angiotensin I in das pressorisch wirksame Angiotensin II katalysiert. […] Besonders interessant ist hierbei der langsame Wirkungseintritt und die lange Wirkdauer der Verbindung. So beobachtet man bei intraduodenaler Gabe von 0,3 mg/kg Körpergewicht eine Hemmung um 15 % nach 10 min, 30 % nach 20 min, 60 % nach 30 min und 70 % nach 45 min; die Wirkung hält länger als 6 Stunden an.

[2] = target: Angiotensin-Converting-Enzyme (ACE) (Homo sapiens, UniProt P12821); assay: ACE inhibition in vitro assay (Biochem. Biophys. Acta, 206, 136 (1970)); type: biochemical
Sequence of Angiotensin-Converting-Enzyme (ACE) (P12821 30-1306, species assumed): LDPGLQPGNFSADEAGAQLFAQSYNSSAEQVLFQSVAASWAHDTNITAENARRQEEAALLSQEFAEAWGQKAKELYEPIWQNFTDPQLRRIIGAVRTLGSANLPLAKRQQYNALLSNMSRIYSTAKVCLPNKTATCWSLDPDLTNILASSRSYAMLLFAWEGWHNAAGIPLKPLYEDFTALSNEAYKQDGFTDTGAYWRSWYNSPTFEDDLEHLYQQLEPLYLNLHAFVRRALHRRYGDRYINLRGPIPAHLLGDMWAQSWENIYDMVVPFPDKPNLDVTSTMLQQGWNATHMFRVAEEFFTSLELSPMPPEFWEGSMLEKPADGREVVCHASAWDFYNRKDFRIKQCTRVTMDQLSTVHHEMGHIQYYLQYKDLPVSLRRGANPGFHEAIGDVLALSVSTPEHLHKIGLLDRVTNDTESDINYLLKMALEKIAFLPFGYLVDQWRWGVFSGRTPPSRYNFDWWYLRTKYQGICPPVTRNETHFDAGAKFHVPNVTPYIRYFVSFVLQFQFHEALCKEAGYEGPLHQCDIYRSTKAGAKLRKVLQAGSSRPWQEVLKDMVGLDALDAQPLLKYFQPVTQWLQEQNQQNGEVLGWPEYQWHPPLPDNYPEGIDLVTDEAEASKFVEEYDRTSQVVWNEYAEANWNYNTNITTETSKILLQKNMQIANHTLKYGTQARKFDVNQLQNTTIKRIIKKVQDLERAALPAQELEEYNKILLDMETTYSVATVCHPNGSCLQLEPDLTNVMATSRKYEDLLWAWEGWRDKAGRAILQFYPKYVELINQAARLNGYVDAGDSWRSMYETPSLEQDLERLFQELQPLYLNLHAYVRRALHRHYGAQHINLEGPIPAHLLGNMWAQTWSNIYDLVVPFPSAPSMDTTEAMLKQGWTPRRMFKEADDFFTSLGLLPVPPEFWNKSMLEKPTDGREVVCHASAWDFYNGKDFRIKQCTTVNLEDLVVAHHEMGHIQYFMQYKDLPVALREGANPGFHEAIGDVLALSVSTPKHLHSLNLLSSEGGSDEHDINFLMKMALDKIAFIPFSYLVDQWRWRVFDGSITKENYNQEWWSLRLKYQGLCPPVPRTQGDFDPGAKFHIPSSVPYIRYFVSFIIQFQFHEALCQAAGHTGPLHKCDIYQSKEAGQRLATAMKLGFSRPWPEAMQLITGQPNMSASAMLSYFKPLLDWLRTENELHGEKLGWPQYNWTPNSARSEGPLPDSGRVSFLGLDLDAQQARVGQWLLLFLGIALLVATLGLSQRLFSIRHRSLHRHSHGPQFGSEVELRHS

NCCCC[C@H](N[C@@H](CCC1CCCCC1)C(=O)O)C(=O)N1[C@H](C(=O)O)C[C@@H]2CCCC[C@@H]21 [N-(1-S-CarboxY-3-cyclohexyl-propyl)-S-lysyl-2S,3aS,7aS-octahydroindol-2-carbonsäure]
Hemmung ([1]; intraduodenal 0,3 mg/kg Körpergewicht, after 10 min): 15%
Hemmung ([1]; intraduodenal 0,3 mg/kg Körpergewicht, after 20 min): 30%
Hemmung ([1]; intraduodenal 0,3 mg/kg Körpergewicht, after 30 min): 60%
Hemmung ([1]; intraduodenal 0,3 mg/kg Körpergewicht, after 45 min): 70%
Wirkdauer (die Wirkung hält an) ([1]; intraduodenal 0,3 mg/kg Körpergewicht, duration of effect): > 6 Stunden
Hemmwirkung auf die Pressorreaktion ([1]; intraduodenal administration, 310 ng Angiotensin i.v., qualitative): starke Hemmwirkung
IC50 [2]: 3.4 nM
